From publication PMC3586822 (Chemico-biological interactions, 2012)

Molecular target: human AChE (Homo sapiens, UniProt P22303)
Assay: coupled Ellman assay, second-order hydrolysis
Type: biochemical

Chain of human AChE (P22303 32-614): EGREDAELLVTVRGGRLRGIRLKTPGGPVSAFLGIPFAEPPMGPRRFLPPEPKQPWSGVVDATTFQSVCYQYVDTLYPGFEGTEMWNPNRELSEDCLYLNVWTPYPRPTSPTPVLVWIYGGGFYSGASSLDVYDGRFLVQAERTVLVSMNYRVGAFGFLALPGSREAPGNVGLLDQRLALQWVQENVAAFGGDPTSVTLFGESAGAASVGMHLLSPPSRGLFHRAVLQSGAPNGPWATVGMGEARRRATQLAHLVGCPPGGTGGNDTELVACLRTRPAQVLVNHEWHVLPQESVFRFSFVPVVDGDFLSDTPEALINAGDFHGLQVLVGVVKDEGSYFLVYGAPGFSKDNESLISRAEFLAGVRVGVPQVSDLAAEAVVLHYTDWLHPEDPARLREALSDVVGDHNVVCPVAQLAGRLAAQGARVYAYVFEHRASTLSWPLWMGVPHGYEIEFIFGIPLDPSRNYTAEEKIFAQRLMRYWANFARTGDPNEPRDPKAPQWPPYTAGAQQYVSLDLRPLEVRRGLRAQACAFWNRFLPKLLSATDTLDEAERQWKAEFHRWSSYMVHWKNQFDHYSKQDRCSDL

Cc1ccc2c(c1)sc(-c1ccc(N(C)C)cc1)[n+]2C [thioflavin T]
Ki: 1330 ± 50 nM
